Results from US20180099931A1 (AbbVie S.à.r.l., priority 2016, published 2018).
Like-named read-outs stand apart in the source and are kept apart here.

Molecular target: T1, F508delCFTR (Homo sapiens, UniProt P13569, DEL508-508)
T1 construct: expressed in transfected cells; host or cells: CFBE41o- human lung-derived epithelial cells (CFBE4lo-F508delCFTR-HRP), doxycycline-inducible
Test: Cell Surface Expression-Horse Radish Peroxidase (CSE-HRP) Assay;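 as to Maximum % activity (with co-corrector): co-corrector and positive control are both the same reference corrector at 2 µM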;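 as to Maximum % activity (without co-corrector): percent of the 2 µM on-plate positive control corrector response above DMSO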
Type: cell-based
Conditions: for Maximum % activity (with co-corrector) / Emax: maximum at any tested concentration, normalized to on-plate positive control; for Emax: read-out: Maximum % activity (without co-corrector)

[1] = CSE-HRP, test compound without co-corrector, read-out: EC50 (without co-corrector)
[2] = CSE-HRP, with co-corrector (2 μM of 3-[(2R,4R)-4-({[1-(2,2-difluoro-1,3-benzodioxol-5-yl)cyclopropyl]carbonyl}amino)-7-methoxy-3,4-dihydro-2H-chromen-2-yl]benzoic acid), read-out: EC50 (with co-corrector)
[3] = CSE-HRP, with co-corrector (2 μM)
[4] = test compound without co-corrector
[5] = test compound without co-corrector, read-out: EC50 (without co-corrector)
[6] = with co-corrector (2 μM of 3-[(2R,4R)-4-({[1-(2,2-difluoro-1,3-benzodioxol-5-yl)cyclopropyl]carbonyl}amino)-7-methoxy-3,4-dihydro-2H-chromen-2-yl]benzoic acid)
[7] = with co-corrector (2 μM of 3-[(2R,4R)-4-({[1-(2,2-difluoro-1,3-benzodioxol-5-yl)cyclopropyl]carbonyl}amino)-7-methoxy-3,4-dihydro-2H-chromen-2-yl]benzoic acid), read-out: EC50 (with co-corrector)

T1 sequence (P13569 with tags, fused parts or gaps DEL508-508): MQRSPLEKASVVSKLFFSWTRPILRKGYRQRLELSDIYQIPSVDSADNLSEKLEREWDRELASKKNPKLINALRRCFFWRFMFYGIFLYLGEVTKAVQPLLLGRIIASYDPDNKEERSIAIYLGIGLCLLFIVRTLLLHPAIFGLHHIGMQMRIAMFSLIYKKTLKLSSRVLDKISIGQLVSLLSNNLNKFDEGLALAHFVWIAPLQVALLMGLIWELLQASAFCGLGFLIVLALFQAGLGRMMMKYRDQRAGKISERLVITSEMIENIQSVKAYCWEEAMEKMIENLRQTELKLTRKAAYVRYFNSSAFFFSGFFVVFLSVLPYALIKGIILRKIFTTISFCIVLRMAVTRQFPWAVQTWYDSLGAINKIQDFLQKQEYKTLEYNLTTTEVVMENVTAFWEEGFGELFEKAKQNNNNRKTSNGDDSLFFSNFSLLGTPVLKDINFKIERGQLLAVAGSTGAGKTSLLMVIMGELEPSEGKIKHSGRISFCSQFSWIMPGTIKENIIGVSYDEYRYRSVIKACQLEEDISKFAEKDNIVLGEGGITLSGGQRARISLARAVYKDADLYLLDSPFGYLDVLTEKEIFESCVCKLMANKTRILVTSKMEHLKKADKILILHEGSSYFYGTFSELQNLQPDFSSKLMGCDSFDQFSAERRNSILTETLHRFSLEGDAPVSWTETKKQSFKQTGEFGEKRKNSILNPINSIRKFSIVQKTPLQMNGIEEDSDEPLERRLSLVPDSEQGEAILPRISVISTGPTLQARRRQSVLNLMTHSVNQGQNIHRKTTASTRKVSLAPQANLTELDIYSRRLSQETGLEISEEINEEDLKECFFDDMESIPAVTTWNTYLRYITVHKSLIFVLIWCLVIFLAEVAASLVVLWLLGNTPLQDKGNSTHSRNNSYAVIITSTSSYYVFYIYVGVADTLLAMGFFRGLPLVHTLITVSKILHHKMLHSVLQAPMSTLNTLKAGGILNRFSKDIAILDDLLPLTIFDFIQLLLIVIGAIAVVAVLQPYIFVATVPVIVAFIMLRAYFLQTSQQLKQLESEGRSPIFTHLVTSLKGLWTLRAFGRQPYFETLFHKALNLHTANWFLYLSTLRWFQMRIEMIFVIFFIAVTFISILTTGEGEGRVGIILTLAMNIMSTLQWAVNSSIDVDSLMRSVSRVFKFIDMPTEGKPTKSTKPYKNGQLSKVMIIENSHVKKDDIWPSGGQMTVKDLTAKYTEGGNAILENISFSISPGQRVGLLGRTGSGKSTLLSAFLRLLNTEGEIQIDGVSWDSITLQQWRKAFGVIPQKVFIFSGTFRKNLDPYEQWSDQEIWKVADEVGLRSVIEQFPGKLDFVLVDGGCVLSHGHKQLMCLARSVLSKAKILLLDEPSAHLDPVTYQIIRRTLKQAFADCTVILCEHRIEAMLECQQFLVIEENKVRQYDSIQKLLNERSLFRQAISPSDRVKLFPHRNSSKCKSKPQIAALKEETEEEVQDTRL

Row | EC50 [1] [nM] | EC50 [2] [nM] | Maximum % activity (with co-corrector) [3] | Emax (CSE-HRP, without co-corrector) [%] | Emax [4] [%] | EC50 [5] [nM] | Maximum % activity (with co-corrector) [6] | EC50 [7] [nM] | Maximum % activity (with co-corrector) (with co-corrector (2 μM)) | Emax (without co-corrector) [%] | SMILES
1 | 1000 to 10000 | 1000 to 10000 | +++ (≥350) | < 100 |  |  |  |  |  |  | CC(C)(C)[C@H]1[C@H](NCc2cc(C(F)(F)F)cc(C(F)(F)F)c2)[C@H](c2ccccc2)N(C(=O)C2CCCCC2)[C@@H]1C(=O)O [II-108]
2 |  |  |  |  |  | 1000 to 10000 |  | 1000 to 10000 | +++ (≥350) | > 200 | COc1ccc(C(C)(C)C)cc1CN[C@H]1[C@H](C(C)(C)C)[C@@H](C(=O)O)N(C(=O)[C@@H]2CCCO2)[C@H]1c1ccccc1 [Example 34, (2S,3S,4S,5S)-3-tert-butyl-4-{[(5-tert-butyl-2-methoxyphenyl)methyl]amino}-1-[(2S)-oxolane-2-carbonyl]-5-phenylpyrrolidine-2-carboxylic acid]
3 |  |  |  |  | < 100 | > 10000 | ++ (≥150 and <350) | 1000 to 10000 |  |  | CN(C)c1ncc(C(F)(F)F)cc1CN[C@@H]1[C@@H](C(C)(C)C)[C@H](C(=O)O)N(C(=O)C2CCCCC2)[C@@H]1c1ccccc1 (racemic) [III-36]
4 | 1000 to 10000 | 1000 to 10000 | +++ (≥350) | 100 to 200 |  |  |  |  |  |  | COc1ccc(C(F)(F)F)cc1CN[C@H]1[C@H](C(C)(C)C)[C@@H](C(=O)O)N(C(=O)C2CCCCC2)[C@H]1c1ccccc1F [II-260]
5 |  |  |  |  | > 200 | 1000 to 10000 | +++ (≥350) | 1000 to 10000 |  |  | COc1ccc(C(C)(C)C)cc1CN[C@H]1[C@H](C(C)(C)C)[C@@H](C(=O)O)N(C(=O)C2CCCCO2)[C@H]1c1ccccc1 (stereo partly shown) [II-318]
6 |  |  |  |  |  | 1000 to 10000 |  | 1000 to 10000 | +++ (≥350) | > 200 | COc1ccc(C(C)(C)C)cc1CN[C@H]1[C@H](C(C)(C)C)[C@@H](C(=O)O)N(C(=O)[C@H]2CCCC(F)(F)C2)[C@H]1c1ccccc1 [Example 30, (2S,3S,4S,5S)-3-tert-butyl-4-{[(5-tert-butyl-2-methoxyphenyl)methyl]amino}-1-[(1S)-3,3-difluorocyclohexane-1-carbonyl]-5-phenylpyrrolidine-2-carboxylic acid]
7 |  |  |  |  |  | 1000 to 10000 |  | < 1000 | +++ (≥350) | > 200 | COc1nc(C(C)(C)C)ccc1CN[C@H]1[C@H](C(C)(C)C)[C@@H](C(=O)O)N(C(=O)C2CCCC(F)(F)C2)[C@H]1c1ccccc1 (relative stereo) [Example 53, (2S,3S,4S,5S)-3-tert-butyl-4-{[(6-tert-butyl-2-methoxypyridin-3-yl)methyl]amino}-1-[(1R*)-3,3-difluorocyclohexane-1-carbonyl]-5-phenylpyrrolidine-2-carboxylic acid]
8 | 1000 to 10000 | < 1000 | +++ (≥350) | > 200 |  |  |  |  |  |  | COc1ncc(C(F)(F)F)cc1CN[C@H]1[C@H](C(C)(C)C)[C@@H](C(=O)O)N(C(=O)C2CCC2)[C@H]1c1ccccc1C(C)C [Example I-273]
9 | < 1000 | < 1000 | +++ (≥350) | 100 to 200 |  |  |  |  |  |  | COc1cc(C(F)(F)F)ccc1CN[C@H]1[C@H](C(C)(C)C)[C@@H](C(=O)O)N(C(=O)C2CCCCC2)[C@H]1c1ccccc1OC (stereo in doubt) [II-50]
10 | 1000 to 10000 | 1000 to 10000 | +++ (≥350) | 100 to 200 |  |  |  |  |  |  | COc1ccc(F)cc1CN[C@@H]1[C@@H](C(C)(C)C)[C@H](C(=O)O)N(C(=O)OC(C)C)[C@@H]1c1ccccc1 (racemic) [II-42]
11 | 1000 to 10000 | 1000 to 10000 | +++ (≥350) | 100 to 200 |  |  |  |  |  |  | COc1ccc(Br)cc1CN[C@H]1[C@H](C(C)(C)C)[C@@H](C(=O)O)N(C(=O)C2CCCCC2)[C@H]1c1ccccc1F [II-262]
12 |  |  |  |  |  | 1000 to 10000 |  | 1000 to 10000 | +++ (≥350) | 100 to 200 | COc1ccc(C(F)(F)F)cc1CN[C@H]1[C@H](C(C)(C)C)[C@@H](C(=O)O)N(C(=O)CC2CCCCO2)[C@H]1c1ccccc1 (stereo partly shown) [Example I-84]
13 |  |  |  |  | < 100 | > 10000 | + (<150) | > 10000 |  |  | COc1cccc(CN[C@@H]2[C@@H](C(C)(C)C)[C@H](C(=O)O)N(C(=O)C3CCCCC3)[C@@H]2c2ccccc2)c1OC (racemic) [III-13]
14 | 1000 to 10000 | 1000 to 10000 | +++ (≥350) | > 200 |  |  |  |  |  |  | COc1ccc(Cl)cc1CN[C@@H]1[C@@H](C(C)(C)OC)[C@H](C(=O)O)N(C(=O)C2CCCCC2)[C@@H]1c1ccccc1 (racemic) [II-79]
15 | 1000 to 10000 | 1000 to 10000 | +++ (≥350) | < 100 |  |  |  |  |  |  | CC(C)(C)[C@@H]1[C@@H](NCc2ccccc2OC(F)(F)F)[C@@H](c2ccccc2)N(C(=O)C2CCCCC2)[C@H]1C(=O)O (racemic) [II-76]

More lines, now with the values behind:

Row | SMILES | EC50 [1] [nM] | EC50 [2] [nM] | Maximum % activity (with co-corrector) [3] | Emax (CSE-HRP, without co-corrector) [%] | Emax [4] [%] | EC50 [5] [nM] | Maximum % activity (with co-corrector) [6] | EC50 [7] [nM] | Maximum % activity (with co-corrector) (with co-corrector (2 μM)) | Emax (without co-corrector) [%]
16 | COc1ccc(C(C)(C)C)cc1CN[C@H]1[C@H](C(C)(C)C)[C@@H](C(=O)O)N(C(=O)c2c(OC)cnn2C)[C@H]1c1ccccc1 [II-207] | 1000 to 10000 | 1000 to 10000 | +++ (≥350) | 100 to 200 |  |  |  |  |  | 
17 | COc1ccc(C(C)(C)C)cc1CN[C@H]1[C@H](C(C)(C)C)[C@@H](C(=O)O)N(C(=O)CC(C)(O)C(C)C)[C@H]1c1ccccc1 (stereo partly shown) [II-372] |  |  |  |  | > 200 | 1000 to 10000 | +++ (≥350) | 1000 to 10000 |  | 
18 | CO[C@H](C(=O)N1[C@H](c2cccnc2N(C)C)[C@H](Nc2cc(C(F)(F)F)cc(C)n2)[C@@H](C(C)(C)C)[C@@H]1C(=O)O)c1ccccc1 (racemic) [III-90] |  |  |  |  | < 100 | > 10000 | + (<150) | 1000 to 10000 |  | 
19 | COc1ncc(C2CCC2)cc1CN[C@H]1[C@H](C(C)(C)C)[C@@H](C(=O)O)N(C(=O)[C@H]2CCCCO2)[C@H]1c1ccccc1F [II-566] |  |  |  |  | 100 to 200 | 1000 to 10000 | +++ (≥350) | 1000 to 10000 |  | 
20 | COc1ncc(C(F)(F)F)cc1CN[C@H]1[C@H](C23CC(C2)C3)[C@@H](C(=O)O)N(C(=O)OC(C)C)[C@H]1c1ccccc1 [III-221] |  |  |  |  | 100 to 200 | 1000 to 10000 |  | 1000 to 10000 | +++ (≥350) | 
21 | COc1ccc(C(C)(C)C)cc1CN[C@H]1[C@H](C(C)(C)C)[C@@H](C(=O)O)N(C(=O)C(Oc2ccccc2C)C(C)C)[C@H]1c1ccccc1 (stereo partly shown) [II-415] |  |  |  |  | > 200 | 1000 to 10000 | +++ (≥350) | < 1000 |  | 
22 | COc1ccc(C(C)(C)C)cc1CN[C@H]1[C@H](C(C)(C)C)[C@@H](C(=O)O)N(C(=O)c2cnn(C)c2-c2ccccc2)[C@H]1c1ccccc1 [II-358] |  |  |  |  | < 100 | 1000 to 10000 | +++ (≥350) | 1000 to 10000 |  | 
23 | COc1ccc(C(C)(C)C)cc1CN[C@H]1[C@H](C(C)(C)C)[C@@H](C(=O)O)N(C(=O)C2(C)CCc3cc(C)ccc32)[C@H]1c1ccccc1 (stereo partly shown) [Example I-147] |  |  |  |  |  | 1000 to 10000 |  | 1000 to 10000 | +++ (≥350) | < 100
24 | CCCCCOC(=O)N1[C@H](C(=O)O)[C@@H](C(C)(C)C)[C@H](NCc2cc(C(C)(C)C)ccc2OC)[C@@H]1c1ccccc1 [II-385] |  |  |  |  | > 200 | < 1000 | +++ (≥350) | < 1000 |  | 
25 | COc1ccc(C(C)(C)C)cc1CN[C@H]1[C@H](C(C)(C)C)[C@@H](C(=O)O)N(C(=O)C(C)Oc2ccc(F)cc2)[C@H]1c1ccccc1 (stereo partly shown) [II-310] | 1000 to 10000 | < 1000 | +++ (≥350) | > 200 |  |  |  |  |  | 
26 | COc1ccc(C(C)(C)C)cc1CN[C@H]1[C@H](C(C)(C)OC)[C@@H](C(=O)O)N(C(=O)OC(C)C)[C@H]1c1cccnc1N(C)C [Example I-220] |  |  |  |  |  | 1000 to 10000 |  | 1000 to 10000 | +++ (≥350) | > 200
27 | COc1cc2c(cc1CN[C@H]1[C@H](C(C)(C)C)[C@@H](C(=O)O)N(C(=O)OC(C)C)[C@H]1c1ccccc1C)CCC2 [Example 90, (2S,3S,4S,5S)-3-tert-butyl-4-{[(6-methoxy-2,3-dihydro-1H-inden-5-yl)methyl]amino}-5-(2-methylphenyl)-1-{[(propan-2-yl)oxy]carbonyl}pyrrolidine-2-carboxylic acid] |  |  |  |  |  | 1000 to 10000 |  | 1000 to 10000 | +++ (≥350) | > 200
28 | COc1ccc(C(C)(C)C)cc1CN[C@H]1[C@H](C(C)(C)C)[C@@H](C(=O)O)N(C(=O)[C@]2(C)COc3cc4c(cc32)OC(F)(F)O4)[C@H]1c1cccnc1OC [III-230] |  |  |  |  | < 100 | 1000 to 10000 |  | 1000 to 10000 | ++ (≥150 and <350) | 
